Where two headings read alike, the source gives them in different places.
Legend:
[1] = test system: Key Broadleaf Weed and Crop Species; assay: Post-Emergent Test II: postemergent herbicidal activity, visual rating after 14 d (Table 7); type: in vivo; conditions: post-emergence, 336 h; for pest or weed control at 35 g/ha: 35 g ai/ha; for pest or weed control at 70 g/ha: 70 g ai/ha; for pest or weed control at 140 g/ha: 140 g ai/ha
Method in brief: (§1)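 Post-emergence foliar spray, 187 L/ha, first/second true leaf stage plants in potting mix (pH 6.0-6.8). Rates: top rate and 2-fold serial dilutions to 1/16×. Solvent-blank controls. Readout: visual % kill at 14 d.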

[2] = test system: Key Grass and Sedge Weeds as well as Grass Crops; assay: Post-Emergent Test II: postemergent herbicidal activity, visual rating after 14 d (Table 8); type: in vivo; conditions: post-emergence, 336 h; for pest or weed control at 35 g/ha: 35 g ai/ha; for pest or weed control at 70 g/ha: 70 g ai/ha; for pest or weed control at 140 g/ha: 140 g ai/ha
Method in brief: as §1

[3] = lambsquarters (Chenopodium album), read-out: Visual Growth Reduction (%) 14 Days After Application CHEAL
[4] = oilseed rape, canola (Brassica napus), read-out: Visual Growth Reduction (%) 14 Days After Application BRSNN
[5] = redroot pigweed (Amaranthus retroflexus), read-out: Visual Growth Reduction (%) 14 Days After Application AMARE
[6] = sunflower (Helianthus annuus), read-out: Visual Growth Reduction (%) 14 Days After Application HELAN
[7] = velvetleaf (Abutilon theophrasti), read-out: Visual Growth Reduction (%) 14 Days After Application ABUTH
[8] = wild poinsettia (Euphorbia heterophylla), read-out: Visual Growth Reduction (%) 14 Days After Application EPHHL
[9] = barnyardgrass (Echinochloa crus-galli), read-out: Visual Growth Reduction (%) 14 Days After Application ECHCG
[10] = giant foxtail (Setaria faberi), read-out: Visual Growth Reduction (%) 14 Days After Application SETFA
[11] = maize, corn (Zea mays), read-out: Visual Growth Reduction (%) 14 Days After Application ZEAMX
[12] = rice (Oryza sativa), read-out: Visual Growth Reduction (%) 14 Days After Application ORYSA
[13] = wheat, spring (Triticum aestivum), read-out: Visual Growth Reduction (%) 14 Days After Application TRZAS
[14] = yellow nutsedge (Cyperus esculentus), read-out: Visual Growth Reduction (%) 14 Days After Application CYPES

| SMILES | pest or weed control at 35 g/ha [1, 3] [%] | pest or weed control at 70 g/ha [1, 3] [%] | pest or weed control at 140 g/ha [1, 3] [%] | pest or weed control at 35 g/ha [1, 4] [%] | pest or weed control at 70 g/ha [1, 4] [%] | pest or weed control at 140 g/ha [1, 4] [%] | pest or weed control at 35 g/ha [1, 5] [%] | pest or weed control at 70 g/ha [1, 5] [%] | pest or weed control at 140 g/ha [1, 5] [%] | pest or weed control at 35 g/ha [1, 6] [%] | pest or weed control at 70 g/ha [1, 6] [%] | pest or weed control at 140 g/ha [1, 6] [%] | pest or weed control at 35 g/ha [1, 7] [%] | pest or weed control at 70 g/ha [1, 7] [%] | pest or weed control at 140 g/ha [1, 7] [%] | pest or weed control at 35 g/ha [1, 8] [%] | pest or weed control at 70 g/ha [1, 8] [%] | pest or weed control at 140 g/ha [1, 8] [%] | pest or weed control at 70 g/ha [2, 9] [%] | pest or weed control at 140 g/ha [2, 9] [%] | further results |
| --- | --- | --- | --- | --- | --- | --- | --- | --- | --- | --- | --- | --- | --- | --- | --- | --- | --- | --- | --- | --- | --- |
| COC(=O)c1nc(-c2cc3c(cc2F)OCO3)nc(N)c1OC [Compound 69] | 0 to 29 | 0 to 29 | 0 to 29 | 75 to 84 | 75 to 84 | 95 to 100 | 0 to 29 | 0 to 29 | 0 to 29 | 0 to 29 | 45 to 59 | 60 to 74 | 0 to 29 | 0 to 29 | 0 to 29 | 0 to 29 | 60 to 74 | 75 to 84 | 0 to 29 | 0 to 29 | pest or weed control at 35 g/ha [2, 9]: 0 to 29%; pest or weed control at 35 g/ha [2, 10]: 0 to 29%; pest or weed control at 70 g/ha [2, 10]: 0 to 29%; pest or weed control at 140 g/ha [2, 10]: 0 to 29%; pest or weed control at 35 g/ha [2, 11]: 0 to 29%; pest or weed control at 70 g/ha [2, 11]: 0 to 29%; pest or weed control at 140 g/ha [2, 11]: 0 to 29%; pest or weed control at 35 g/ha [2, 12]: 0 to 29%; pest or weed control at 70 g/ha [2, 12]: 0 to 29%; pest or weed control at 140 g/ha [2, 12]: 0 to 29%; pest or weed control at 35 g/ha [2, 13]: 0 to 29%; pest or weed control at 70 g/ha [2, 13]: 0 to 29%; pest or weed control at 140 g/ha [2, 13]: 0 to 29%; pest or weed control at 35 g/ha [2, 14]: 0 to 29%; pest or weed control at 70 g/ha [2, 14]: 0 to 29%; pest or weed control at 140 g/ha [2, 14]: 0 to 29% |
| COc1c(N)nc(-c2ccc3c(c2)OC(F)(F)O3)nc1C(=O)O [Compound 63] | 0 to 29 | 0 to 29 | 0 to 29 | 60 to 74 | 75 to 84 | 75 to 84 | 0 to 29 | 30 to 44 | 60 to 74 | 85 to 94 | 85 to 94 | 85 to 94 | 85 to 94 | 60 to 74 | 85 to 94 | 95 to 100 | 95 to 100 | 95 to 100 | 95 to 100 | 95 to 100 | pest or weed control at 35 g/ha [2, 10]: 75 to 84%; pest or weed control at 70 g/ha [2, 10]: 95 to 100%; pest or weed control at 140 g/ha [2, 10]: 95 to 100%; pest or weed control at 35 g/ha [2, 11]: 95 to 100%; pest or weed control at 70 g/ha [2, 11]: 95 to 100%; pest or weed control at 140 g/ha [2, 11]: 95 to 100%; pest or weed control at 35 g/ha [2, 12]: 0 to 29%; pest or weed control at 70 g/ha [2, 12]: 0 to 29%; pest or weed control at 140 g/ha [2, 12]: 0 to 29%; pest or weed control at 35 g/ha [2, 13]: 45 to 59%; pest or weed control at 70 g/ha [2, 13]: 45 to 59%; pest or weed control at 140 g/ha [2, 13]: 45 to 59%; pest or weed control at 35 g/ha [2, 14]: 95 to 100%; pest or weed control at 70 g/ha [2, 14]: 95 to 100%; pest or weed control at 140 g/ha [2, 14]: 95 to 100% |
| COC(=O)c1nc(-c2ccc3c(c2F)OC(F)(F)O3)nc(N)c1Cl [Compound 58] | 95 to 100 | 95 to 100 | 95 to 100 | 0 to 29 | 0 to 29 | 60 to 74 | 0 to 29 | 45 to 59 | 95 to 100 | 75 to 84 | 75 to 84 | 75 to 84 | 0 to 29 | 0 to 29 | 75 to 84 | 95 to 100 | 95 to 100 | 95 to 100 | 85 to 94 | 95 to 100 | pest or weed control at 35 g/ha [2, 9]: 75 to 84%; pest or weed control at 35 g/ha [2, 10]: 30 to 44%; pest or weed control at 70 g/ha [2, 10]: 45 to 59%; pest or weed control at 140 g/ha [2, 10]: 45 to 59%; pest or weed control at 35 g/ha [2, 11]: 45 to 59%; pest or weed control at 70 g/ha [2, 11]: 60 to 74%; pest or weed control at 140 g/ha [2, 11]: 75 to 84%; pest or weed control at 35 g/ha [2, 12]: 0 to 29%; pest or weed control at 70 g/ha [2, 12]: 0 to 29%; pest or weed control at 140 g/ha [2, 12]: 0 to 29%; pest or weed control at 35 g/ha [2, 13]: 0 to 29%; pest or weed control at 70 g/ha [2, 13]: 0 to 29%; pest or weed control at 140 g/ha [2, 13]: 0 to 29%; pest or weed control at 35 g/ha [2, 14]: 60 to 74%; pest or weed control at 70 g/ha [2, 14]: 60 to 74%; pest or weed control at 140 g/ha [2, 14]: 60 to 74% |

From patent publication US9149038B2, “4-amino-6-(heterocyclic)picolinates and 6-amino-2-(heterocyclic)pyrimidine-4-carboxylates and their use as herbicides” (Dow AgroSciences LLC, priority 2013, dated 2015)
